Patent US9611264B1, “N-[2-(3-amino-2,5-dimethyl-1,1-dioxido-5,6-dihydro-2H-1,2,4-thiadiazin-5-yl)-1,3-thiazol-4-yl] amides” (Pfizer Inc., priority 2015, dated 2017)
Where a name gives a salt, the structure may show the parent alone.

Each compound was assayed against T1, BACE1 enzyme (Homo sapiens, UniProt P56817) (assay: BACE1 Cell-Free Assay (fluorescence polarization, cleavage of synthetic APP substrate)). Conditions: geometric mean of 2-4 determinations unless otherwise indicated (b: ≧5 determinations; c: single determination); 0.1 nM BACE1, 150 nM peptide substrate, pH 4.5, 3 hours at 37° C.
T1 construct: transfected with a soluble BACE construct (BACE1deltaTM96His); His (C); made in house; host or cells: CHO-K1 cells (secreted into conditioned media)
T1 sequence (P56817 46-457 limits assumed): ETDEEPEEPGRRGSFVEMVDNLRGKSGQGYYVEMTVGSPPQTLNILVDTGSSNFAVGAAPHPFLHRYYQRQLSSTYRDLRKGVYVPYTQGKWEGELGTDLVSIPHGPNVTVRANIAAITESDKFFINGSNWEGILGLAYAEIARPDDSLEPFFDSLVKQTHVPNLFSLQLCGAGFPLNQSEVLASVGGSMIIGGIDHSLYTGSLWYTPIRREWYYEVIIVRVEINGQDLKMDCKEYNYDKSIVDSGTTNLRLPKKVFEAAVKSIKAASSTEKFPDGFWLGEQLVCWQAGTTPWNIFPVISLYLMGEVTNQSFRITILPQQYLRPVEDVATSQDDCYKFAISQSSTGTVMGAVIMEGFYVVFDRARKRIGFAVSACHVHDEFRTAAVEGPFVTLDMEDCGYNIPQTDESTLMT
Assay type: biochemical
Source text: Beta-secretase (BACE) is one of the enzymes involved in the generation of the amyloid beta peptide found in the amyloid plaques of Alzheimer's disease patients. This assay measures the inhibition of the beta-secretase enzyme as it cleaves a non-native peptide.
A synthetic APP substrate that can be cleaved by beta-secretase having N-terminal biotin and made fluorescent by the covalent attachment of Oregon Green at the Cys residue is used to assay beta-secretase activity in the presence or absence of the inhibitory compounds. The substrate is Biotin-GLTNIKTEEISEISY^EVEFR-C[Oregon Green]KK-OH. The BACE1 enzyme is affinity purified material from conditioned media of CHO-K1 cells that have been transfected with a soluble BACE construct (BACE1deltaTM96His). Compounds are incubated in a ½ log dose response curve from a top concentration of 100 μM with BACE1 enzyme and the biotinylated fluorescent peptide in 384-well black plates (Thermo Scientific #4318). BACE1 is at a final concentration of 0.1 nM with a final concentration of peptide substrate of 150 nM in a reaction volume of 30 μL assay buffer [100 mM sodium acetate, pH 4.5 (brought to pH with acetic acid), and 0.001% Tween-20]. Plates are covered and incubated for 3 hours at 37° C. The reaction is stopped with the addition of 30 μL of 1.5 μM Streptavidin (Pierce, #21125). After a 10 minute incubation at room temperature, plates are read on a PerkinElmer EnVision for fluorescence polarization (Ex485 nm/Em530 nm). The activity of the beta-secretase enzyme is detected by changes in the fluorescence polarization that occur when the substrate is cleaved by the enzyme.

| IC50 [nM] | SMILES |
| --- | --- |
| 13 | CC#CCOc1ccc(C(=O)Nc2csc([C@]3(C)CS(=O)(=O)N(C)C(N)=N3)n2)nc1 [Example 24, N-{2-[(5S)-3-amino-2,5-dimethyl-1,1-dioxido-5,6-dihydro-2H-1,2,4-thiadiazin-5-yl]-1,3-thiazol-4-yl}-5-(but-2-yn-1-yloxy)pyridine-2-carboxamide] |
| 18000 | C[C@H]1[C@](C)(c2nc(NC(=O)c3ccc(OC(F)F)cn3)cs2)N=C(N)N(C)S1(=O)=O (single isomer, unassigned) [Example 10] |
| 45 | CN1C(N)=N[C@](C)(c2nc(NC(=O)c3ccc(C#N)cn3)cs2)CS1(=O)=O [Example 26, N-{2-[(5S)-3-amino-2,5-dimethyl-1,1-dioxido-5,6-dihydro-2H-1,2,4-thiadiazin-5-yl]-1,3-thiazol-4-yl}-5-cyanopyridine-2-carboxamide] |
| 13 | CC#CCOc1cnc(C(=O)Nc2csc([C@]3(C)CS(=O)(=O)N(C)C(N)=N3)n2)cn1 [Example 23, N-{2-[(5S)-3-amino-2,5-dimethyl-1,1-dioxido-5,6-dihydro-2H-1,2,4-thiadiazin-5-yl]-1,3-thiazol-4-yl}-5-(but-2-yn-1-yloxy)pyrazine-2-carboxamide] |
| 88 | C[C@H]1[C@@](C)(c2nc(NC(=O)c3ccc(OC(F)F)cn3)cs2)N=C(N)N(C)S1(=O)=O (single isomer, unassigned) [Example 12] |
| 33800 | C[C@@H]1[C@](C)(c2nc(NC(=O)c3ccc(OC(F)F)cn3)cs2)N=C(N)N(C)S1(=O)=O (single isomer, unassigned) [Example 13] |
| 185 | CN1C(N)=NC(C)(c2nc(NC(=O)c3ccc(OC(F)F)cn3)cs2)C(C)(C)S1(=O)=O (stereo not drawn) [Example 6, N-[2-(3-amino-2,5,6,6-tetramethyl-1,1-dioxido-5,6-dihydro-2H-1,2,4-thiadiazin-5-yl)-1,3-thiazol-4-yl]-5-(difluoromethoxy)pyridine-2-carboxamide] |
| 9 | Cc1cc(C#N)cnc1C(=O)Nc1csc([C@]2(C)CS(=O)(=O)N(C)C(N)=N2)n1 [Example 27, N-{2-[(5S)-3-amino-2,5-dimethyl-1,1-dioxido-5,6-dihydro-2H-1,2,4-thiadiazin-5-yl]-1,3-thiazol-4-yl}-5-cyano-3-methylpyridine-2-carboxamide] |
| 371 | CC[C@@H]1[C@@](C)(c2nc(NC(=O)c3ccc(OC(F)F)cn3)cs2)N=C(N)N(C)S1(=O)=O [Example 15, N-{2-[(5S,6R)-3-amino-6-ethyl-2,5-dimethyl-1,1-dioxido-5,6-dihydro-2H-1,2,4-thiadiazin-5-yl]-1,3-thiazol-4-yl}-5-(difluoromethoxy)pyridine-2-carboxamide] |
| 78 | CN1C(N)=N[C@](C)(c2nc(NC(=O)c3ccc(OC(F)F)cn3)cs2)C(C)(C)S1(=O)=O (single isomer, unassigned) [Example 8] |
| 103 | CN1C(N)=N[C@](C)(c2nc(NC(=O)c3ccc(OC(F)F)cn3)cs2)[C@@H](C2CC2)S1(=O)=O (single isomer, unassigned) [Example 4] |
| 31200 | CN1C(N)=N[C@@](C)(c2nc(NC(=O)c3ccc(OC(F)F)cn3)cs2)[C@H](C2CC2)S1(=O)=O (single isomer, unassigned) [Example 3] |
| 3920 | CC[C@@H]1[C@](C)(c2nc(NC(=O)c3ccc(OC(F)F)cn3)cs2)N=C(N)N(C)S1(=O)=O [Example 16, N-{2-[(5R,6R)-3-amino-6-ethyl-2,5-dimethyl-1,1-dioxido-5,6-dihydro-2H-1,2,4-thiadiazin-5-yl]-1,3-thiazol-4-yl}-5-(difluoromethoxy)pyridine-2-carboxamide] |
| 246 | CN1C(N)=N[C@](C)(c2nc(NC(=O)c3cnc(CF)cn3)cs2)CS1(=O)=O [Example 18, N-{2-[(5S)-3-amino-2,5-dimethyl-1,1-dioxido-5,6-dihydro-2H-1,2,4-thiadiazin-5-yl]-1,3-thiazol-4-yl}-5-(fluoromethyl)pyrazine-2-carboxamide] |
| 134 | CN1C(N)=N[C@](C)(c2nc(NC(=O)c3cnc(OCC(C)(F)F)cn3)cs2)CS1(=O)=O [Example 22, N-{2-[(5S)-3-amino-2,5-dimethyl-1,1-dioxido-5,6-dihydro-2H-1,2,4-thiadiazin-5-yl]-1,3-thiazol-4-yl}-5-(2,2-difluoropropoxy)pyrazine-2-carboxamide] |
| 200 | CC[C@H]1[C@@](C)(c2nc(NC(=O)c3ccc(OC(F)F)cn3)cs2)N=C(N)N(C)S1(=O)=O [Example 17, N-{2-[(5S,6S)-3-amino-6-ethyl-2,5-dimethyl-1,1-dioxido-5,6-dihydro-2H-1,2,4-thiadiazin-5-yl]-1,3-thiazol-4-yl}-5-(difluoromethoxy)pyridine-2-carboxamide] |
| 60 | CN1C(N)=N[C@](C)(c2nc(NC(=O)c3ccc(OC(F)F)cn3)cs2)CS1(=O)=O [Example 1, N-{2-[(5S)-3-amino-2,5-dimethyl-1,1-dioxido-5,6-dihydro-2H-1,2,4-thiadiazin-5-yl]-1,3-thiazol-4-yl}-5-(difluoromethoxy)pyridine-2-carboxamide] |
| 42 | CN1C(N)=N[C@](C)(c2nc(NC(=O)c3ccc(Cl)cn3)cs2)CS1(=O)=O [Example 20, N-{2-[(5S)-3-amino-2,5-dimethyl-1,1-dioxido-5,6-dihydro-2H-1,2,4-thiadiazin-5-yl]-1,3-thiazol-4-yl}-5-chloropyridine-2-carboxamide] |
| 51 | CN1C(N)=N[C@](C)(c2nc(NC(=O)c3ccc(OC(F)F)cn3)cs2)[C@H](C2CC2)S1(=O)=O (single isomer, unassigned) [Example 5] |
| 172 | CN1C(N)=N[C@](C)(c2nc(NC(=O)c3cnc(C(F)F)cn3)cs2)CS1(=O)=O [Example 19, N-{2-[(5S)-3-amino-2,5-dimethyl-1,1-dioxido-5,6-dihydro-2H-1,2,4-thiadiazin-5-yl]-1,3-thiazol-4-yl}-5-(difluoromethyl)pyrazine-2-carboxamide] |
| 19 | CN1C(N)=N[C@](C)(c2nc(NC(=O)c3ccn(C(F)F)n3)cs2)CS1(=O)=O [Example 2, N-{2-[(5S)-3-amino-2,5-dimethyl-1,1-dioxido-5,6-dihydro-2H-1,2,4-thiadiazin-5-yl]-1,3-thiazol-4-yl}-1-(difluoromethyl)-1H-pyrazole-3-carboxamide] |
| 29 | Cc1cc(OC(F)F)cnc1C(=O)Nc1csc([C@]2(C)CS(=O)(=O)N(C)C(N)=N2)n1 [Example 9, N-{2-[(5S)-3-amino-2,5-dimethyl-1,1-dioxido-5,6-dihydro-2H-1,2,4-thiadiazin-5-yl]-1,3-thiazol-4-yl}-5-(difluoromethoxy)-3-methylpyridine-2-carboxamide, methanesulfonic acid salt] |
| 4400 | CN1C(N)=N[C@@](C)(c2nc(NC(=O)c3ccc(OC(F)F)cn3)cs2)C(C)(C)S1(=O)=O (single isomer, unassigned) [Example 7] |
| 23 | CN1C(N)=N[C@](C)(c2nc(NC(=O)c3ncc(OC(F)F)cc3Cl)cs2)CS1(=O)=O [Example 25, N-{2-[(5S)-3-amino-2,5-dimethyl-1,1-dioxido-5,6-dihydro-2H-1,2,4-thiadiazin-5-yl]-1,3-thiazol-4-yl}-3-chloro-5-(difluoromethoxy)pyridine-2-carboxamide] |
| 14200 | CC[C@H]1[C@](C)(c2nc(NC(=O)c3ccc(OC(F)F)cn3)cs2)N=C(N)N(C)S1(=O)=O [Example 14, N-{2-[(5R,6S)-3-amino-6-ethyl-2,5-dimethyl-1,1-dioxido-5,6-dihydro-2H-1,2,4-thiadiazin-5-yl]-1,3-thiazol-4-yl}-5-(difluoromethoxy)pyridine-2-carboxamide] |
| 136 | C[C@@H]1[C@@](C)(c2nc(NC(=O)c3ccc(OC(F)F)cn3)cs2)N=C(N)N(C)S1(=O)=O (single isomer, unassigned) [Example 11] |
| 11 | CN1C(N)=N[C@](C)(c2nc(NC(=O)c3coc(CF)n3)cs2)CS1(=O)=O [Example 21, N-{2-[(5S)-3-amino-2,5-dimethyl-1,1-dioxido-5,6-dihydro-2H-1,2,4-thiadiazin-5-yl]-1,3-thiazol-4-yl}-2-(fluoromethyl)-1,3-oxazole-4-carboxamide] |
